Data set [1] addresses T1, hIDE (Homo sapiens, UniProt P14735).
T1 construct: made in house
T1 sequence (P14735 1-1019): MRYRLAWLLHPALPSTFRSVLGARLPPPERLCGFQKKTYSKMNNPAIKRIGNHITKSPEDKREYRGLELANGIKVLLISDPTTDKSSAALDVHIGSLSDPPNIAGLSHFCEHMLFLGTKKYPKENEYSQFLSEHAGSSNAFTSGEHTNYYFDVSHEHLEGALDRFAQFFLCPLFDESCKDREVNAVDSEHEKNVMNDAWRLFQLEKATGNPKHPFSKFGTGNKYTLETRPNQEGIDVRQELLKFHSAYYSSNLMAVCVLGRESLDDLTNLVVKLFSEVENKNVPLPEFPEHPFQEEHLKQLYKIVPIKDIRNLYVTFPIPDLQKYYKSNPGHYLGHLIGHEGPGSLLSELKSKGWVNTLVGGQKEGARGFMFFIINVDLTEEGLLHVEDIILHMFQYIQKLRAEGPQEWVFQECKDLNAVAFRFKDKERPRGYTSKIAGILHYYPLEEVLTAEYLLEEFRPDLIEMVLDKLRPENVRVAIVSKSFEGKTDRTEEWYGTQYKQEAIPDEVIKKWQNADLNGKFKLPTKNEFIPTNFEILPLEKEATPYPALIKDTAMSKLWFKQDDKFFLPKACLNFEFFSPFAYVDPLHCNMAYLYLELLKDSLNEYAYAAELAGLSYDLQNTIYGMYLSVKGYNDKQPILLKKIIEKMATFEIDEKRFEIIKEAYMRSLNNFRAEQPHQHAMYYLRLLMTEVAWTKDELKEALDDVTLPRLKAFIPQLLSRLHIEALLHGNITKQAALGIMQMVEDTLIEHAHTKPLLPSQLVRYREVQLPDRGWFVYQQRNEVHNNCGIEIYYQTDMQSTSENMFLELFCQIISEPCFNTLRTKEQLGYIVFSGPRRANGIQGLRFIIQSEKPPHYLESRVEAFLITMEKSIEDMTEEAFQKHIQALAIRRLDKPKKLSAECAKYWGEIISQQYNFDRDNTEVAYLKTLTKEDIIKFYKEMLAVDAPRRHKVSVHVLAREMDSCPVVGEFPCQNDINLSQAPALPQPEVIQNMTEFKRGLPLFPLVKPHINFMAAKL
As to the kind of experiment: In vitro hIDE inhibition of insulin hydrolysis. In kind it is biochemical. The following applies: substrate native insulin; means of two experiments minimum, s.d.±10%; read-out: Selectivity IC50 hIDE. The method, then: The enzymatic activity of hIDE was assayed quantifying the amount of insulin (Actrapid) at the end of the reaction. The quantity of insulin was determined using a Luminex kit (HMHMAG-34K, Millipore). 20 μl of WT IDE in Hepes buffer (50 mM with 100 mM NaCl, pH 7.4) at 1 μg ml^−1 were pre-incubated 10 min at ambient temperature with 20 μl of test compound or vehicle in 96-well microtiter plates (dark, non-binding surface). The reaction was then started by the addition of 40 μl of insulin at 40 nM. The final concentration of hIDE and substrate was 0.25 μg ml^−1 and 20 nM, respectively. Incubations were performed at ambient temperature for 10 min. The reaction was then stopped by addition of 80 μl of 200 mM EDTA. The samples were diluted by a factor of 3, and 15 μl were transferred to 96-well microtiter plates (dark, clear bottom, non-binding surface) containing 15 μl of assay buffer (from Luminex Kit). Fifteen microlitre of insulin magnetic beads were added. Incubation was performed during 16–18 h at 4 °C under agitation. Wells were washed three times and 30 μl of hormone panel antibodies were added. The samples were incubated 30 min at ambient temperature under agitation. 30 μl of strepdavidin-phycoerythrin were added. Incubation was performed 30 min at ambient temperature under agitation. Wells were washed three times and 80 μl of drive fluid were added. The plate was then read with the MagPix apparatus. Data analysis was performed using Xlfit v 5.0 and GraphPad Prism v 4.0. Nonlinear curve fitting and statistical analysis was done using equation 1: […]
where A is minimum value of y; B is range of y; C is the IC50 value and D is slope factor.

Data set [2] can be described thus: Stability in rat plasma. The following applies: both sexes, 37 °C, read-out: Plasma stability r (t1/2). Format: in vitro ADME. The method, then: Incubations were performed in duplicate in Eppendorf tubes. The plasma (mouse plasma, rat plasma (mixed gender), human (mixed gender, all lithium heparine, from Sera Laboratories International) or cell culture medium (differenciation medium: DMEM (Life Technologies, Ref 41965), 0.4 % gentamicine, 10 % FCS (Lonza, Ref DE14-801F) or proliferation medium: DMEM (Life Technologies, Ref 41965), 0.4 % gentamicine, 2 % horse serum (Gbco, Ref16050) was pre-incubated 5 min at 37 °C before the addition of test compounds to a final concentration of 10 μM (1% DMSO maximum). At the defined time points, 50 μl from each tube were removed to another tube containing 450 μl of cold CH3CN+ internal standard (1 μM). After centrifugation (10 min at 10,000 r.p.m.), supernatants are analysed. The degradation half-life (t1/2) values were calculated as t1/2=0.693/k where k is the first-order degradation rate constant. The degradation rate constant (k) was estimated by one-phase exponential decay nonlinear regression analysis of the degradation time course data using Xlfit software (version 2.1.2 or higher) from IDBS.Ltd.

In data set [3] the test system is NOD mice. The experiment in a line: Oral glucose tolerance test (OGTT) in NOD mice. In kind it is in vivo, mouse. The note with it: 50 mg kg^−1 ip. As for the experimental part:
OGTT and IPGTT were performed on 11 to 16 week-old male or female mice (n=4–7 per experimental group). C57BL/6J mice were purchased from Charles River Laboratories (France), Stock no. 000664. C57BL/6J Ide−/− mice were obtained from Guenette[20] and bred in the animal facility of INSERM U1151. WT C57BL/6J mice of the same genetic background were bred in the same animal facility in parallel. NOD Ide−/− mice were generated by backcrossing C57BL/6J Ide−/− mice with NOD wt mice bred in the animal facility of INSERM U1151 and maintained in this facility together with WT NOD mice. Normoglycemic WT and Ide−/− female NOD mice aged 14 weeks were used for OGTTs. Following a 6 h fasting period, a small tail cut was made, basal blood glucose was determined. […] Fifteen minutes later, blood glucose concentrations were measured before and after (up to 120 min, as shown) oral (2 g kg^−1 or 3 g kg^−1, as shown) or intraperitoneal (1.5 g kg^−1) glucose administration. […] Blood glucose levels were determined using an Accu-Check glucometer (Roche Diagnostics). Areas under the curves (AUC) for OGTT and IPGTT were calculated to evaluate glucose tolerance. Plasma insulin concentrations were measured by ELISA (cat. no. 10-1247-01,Mercodia) in blood samples collected 15 min before and 15 and 90 min relative to oral glucose injection. […]

A word on the IC50: it is the midpoint of a concentration-inhibition curve.

For the compound `O=C(C[C@@H](Cc1ccc2ccccc2c1)n1cc(CNC(=O)c2ccc(F)cc2)nn1)NO` [Compound 1], in data set [1], the IC50 was 60 nM. The half-life at 10 μM in data set [2] came out at 13.3 h. In addition, the “glucose tolerance in OGTT, WT NOD” value in data set [3] (14 week-old female WT NOD mice, 3 g kg^−1 glucose) was “strong impairment of glucose tolerance”. In data set [3] (WT NOD mice), the “insulinaemia in OGTT, WT NOD” value is listed as “hyperinsulinemia”.

Values taken from publication PMC4580987, “Catalytic site inhibition of insulin-degrading enzyme by a small molecule induces glucose intolerance in mice” (Nature Communications, 2015).
